From patent US7932283B2, “Fungicide N-cyclopropyl-sulfonylamide derivatives” (Bayer Cropscience AG, priority 2006, dated 2011)

Experiment: logP by HPLC on reversed-phase column (C 18), EEC Directive 79/B31 Annex V.A8, methods A and B
Type: physicochemical
Conditions: linear gradient 10% to 90% acetonitrile; for chromatographic logP: reversed-phase HPLC column (C 18)
Description: Calibration was carried out using unbranched alkan-2-ones (having 3 to 16 carbon atoms) with known logP values (determination of the logP values by the retention times using linear interpolation between two successive alkanones).

[1] = HPLC reversed-phase C 18, method B: 40° C., 0.1% aqueous formic acid and acetonitrile
[2] = LogP method A: HPLC reversed-phase C 18, 43° C., 0.1% aqueous phosphoric acid / acetonitrile
[3] = LogP method B: HPLC reversed-phase C 18, 40° C., 0.1% aqueous formic acid / acetonitrile

Structure (SMILES) | chromatographic logP [1] | chromatographic logP [3] | also measured
CCCOc1nn(C)cc1C(=O)N(C1CC1)S(=O)(=O)c1ccc(Oc2ccc(Cl)c(Cl)c2)cc1Br [Compound 303] | 4.9 | – | –
CCCOc1nn(C)cc1C(=O)N(C1CC1)S(=O)(=O)c1ccc(Oc2ccc(F)c(O)c2)cc1Br [Compound 304] | – | – | LogP [1]: 5.0
CCCOc1nn(C)cc1C(=O)N(C1CC1)S(=O)(=O)c1ccc(Oc2cc(O)cc(O)c2)cc1Br [Compound 305] | 5.1 | – | –
Cn1nc(C(F)(F)F)c(C(=O)N(C2CC2)S(=O)(=O)c2ccccc2C(F)(F)F)c1F [Compound 364] | 3.1 | – | –
Cn1nc(C(F)(F)F)c(C(=O)N(C2CC2)S(=O)(=O)c2ccccc2OC(F)(F)F)c1F [Compound 365] | 3.2 | – | –
Cn1nc(C(F)(F)F)c(C(=O)N(C2CC2)S(=O)(=O)c2ccc(Oc3ccccc3)cc2)c1F [Compound 370] | 3.9 | – | –
Cn1nc(C(F)(F)F)c(C(=O)N(C2CC2)S(=O)(=O)c2ccc(Oc3cccc(C#N)c3Cl)cc2)c1F [Compound 371] | 3.7 | – | –
Cn1nc(C(F)(F)F)c(C(=O)N(C2CC2)S(=O)(=O)c2c(O)cc(C(F)(F)F)cc2O)c1F [Compound 373] | 3.9 | – | –
CCc1nn(C)c(F)c1C(=O)N(C1CC1)S(=O)(=O)c1cc(O)cc(O)c1 [Compound 376] | 3.9 | – | –
CCc1nn(C)c(F)c1C(=O)N(C1CC1)S(=O)(=O)c1c(O)cc(O)cc1O [Compound 379] | 3.6 | – | –
CCc1nn(C)c(F)c1C(=O)N(C1CC1)S(=O)(=O)c1c(C)nn(C)c1O [Compound 382] | 2.3 | – | –
CCCCc1ccc(S(=O)(=O)N(C(=O)c2c(CC)nn(C)c2F)C2CC2)cc1 [Compound 383] | 4.2 | – | –
CCc1nn(C)c(F)c1C(=O)N(C1CC1)S(=O)(=O)c1ccc(Br)cc1O [Compound 385] | 3.4 | – | –
CCc1nn(C)c(F)c1C(=O)N(C1CC1)S(=O)(=O)c1ccc(OC)c(OC)c1 [Compound 386] | 2.5 | – | –
CCc1nn(C)c(F)c1C(=O)N(C1CC1)S(=O)(=O)c1ccc(Oc2cccc(C(F)(F)F)c2)cc1 [Compound 388] | 4.2 | – | –
CCc1nn(C)c(F)c1C(=O)N(C1CC1)S(=O)(=O)c1ccc(Oc2ccc(C(F)(F)F)cc2)cc1 [Compound 389] | 4.3 | – | –
CCc1nn(C)c(F)c1C(=O)N(C1CC1)S(=O)(=O)c1ccc(Oc2ccc(Br)cc2)cc1 [Compound 390] | 4.4 | – | –
CCc1nn(C)c(F)c1C(=O)N(C1CC1)S(=O)(=O)c1ccc(Oc2ccc(O)cc2)cc1 [Compound 391] | 4.2 | – | –
COc1ccc(S(=O)(=O)N(C(=O)c2cn(C)nc2OC)C2CC2)cc1OC [Compound 395] | 1.9 | – | –

Structure (SMILES) | chromatographic logP [1] | chromatographic logP [3] | also measured
Cc1nn(C)c(Oc2cccc(O)c2)c1C(=O)N(C1CC1)S(=O)(=O)c1cccc(O)c1 [Compound 399] | – | – | chromatographic logP [2]: 3.94
Cc1nn(C)c(Oc2cccc(Cl)c2)c1C(=O)N(C1CC1)S(=O)(=O)c1ccc(C(F)(F)F)cc1 [Compound 400] | – | – | chromatographic logP [2]: 4.13
Cc1n[nH]c(C)c1C(=O)N(C1CC1)S(=O)(=O)c1cccc(Cl)c1 [Compound 401] | – | – | chromatographic logP [2]: 2.45
Cc1n[nH]c(C)c1C(=O)N(C1CC1)S(=O)(=O)c1ccc(C(F)(F)F)cc1 [Compound 402] | – | – | chromatographic logP [2]: 2.5
Cc1nn(C)c(C)c1C(=O)N(C1CC1)S(=O)(=O)c1ccc(C(F)(F)F)cc1 [Compound 403] | – | – | chromatographic logP [2]: 3
Cc1nn(C)c(Oc2cccc(Cl)c2)c1C(=O)N(C1CC1)S(=O)(=O)c1ccc(O)c(C(F)(F)F)c1 [Compound 404] | – | – | chromatographic logP [2]: 4.56
Cc1nn(C)c(Oc2cccc(O)c2)c1C(=O)N(C1CC1)S(=O)(=O)c1ccc(O)c(O)c1 [Compound 405] | – | – | chromatographic logP [2]: 4.46
Cc1nn(C)c(O)c1C(=O)N(C1CC1)S(=O)(=O)c1ccc(O)c(C(F)(F)F)c1 [Compound 406] | – | – | chromatographic logP [2]: 3.76
Cc1nn(C)c(O)c1C(=O)N(C1CC1)S(=O)(=O)c1ccc(O)c(O)c1 [Compound 407] | – | – | chromatographic logP [2]: 3.63
Cc1n[nH]c(C)c1C(=O)N(C1CC1)S(=O)(=O)c1ccc(O)c(C(F)(F)F)c1 [Compound 408] | – | – | chromatographic logP [2]: 3
Cc1n[nH]c(C)c1C(=O)N(C1CC1)S(=O)(=O)c1ccc(O)c(O)c1 [Compound 409] | – | – | chromatographic logP [2]: 2.74
Cc1n[nH]c(C)c1C(=O)N(C1CC1)S(=O)(=O)c1ccc(C(C)(C)C)cc1 [Compound 410] | – | – | chromatographic logP [2]: 3.04
Cc1nn(C)c(C)c1C(=O)N(C1CC1)S(=O)(=O)c1ccc(O)c(C(F)(F)F)c1 [Compound 411] | – | – | chromatographic logP [2]: 3.37
Cc1nn(C)c(C)c1C(=O)N(C1CC1)S(=O)(=O)c1ccc(O)c(O)c1 [Compound 412] | – | – | chromatographic logP [2]: 3.21
Cc1nn(C)c(C)c1C(=O)N(C1CC1)S(=O)(=O)c1ccc(O)cc1O [Compound 413] | – | – | chromatographic logP [2]: 2.8
Cc1nn(C)c(C)c1C(=O)N(C1CC1)S(=O)(=O)c1ccc(C(C)(C)C)cc1 [Compound 414] | – | – | chromatographic logP [2]: 3.41
COC(=O)c1csc(C)c1S(=O)(=O)N(C(=O)c1c(C)nn(C)c1F)C1CC1 [Compound 434] | – | – | chromatographic logP [2]: 2.24
CCc1nn(C)c(F)c1C(=O)N(C1CC1)S(=O)(=O)c1c(O)sc(O)c1O [Compound 437] | – | 3.85 | –
COc1nn(C)cc1C(=O)N(C1CC1)S(=O)(=O)c1csc(O)c1O [Compound 440] | – | 3.1 | –

Structure (SMILES) | chromatographic logP [1] | chromatographic logP [3] | also measured
COc1nn(C)cc1C(=O)N(C1CC1)S(=O)(=O)c1cnn(C)c1O [Compound 444] | – | 1.7 | –
Cc1nn(C)c(F)c1C(=O)N(C1CC1)S(=O)(=O)c1cnc(O)c(Br)c1 [Compound 447] | – | – | chromatographic logP [2]: 3.08
COc1nn(C)cc1C(=O)N(C1CC1)S(=O)(=O)c1cnc(O)c(Br)c1 [Compound 449] | – | 2 | –
COc1nn(C)cc1C(=O)N(C1CC1)S(=O)(=O)c1ccc(Oc2ccc(C)nc2)cc1Br [Compound 458] | – | 2 | –
COc1nn(C)cc1C(=O)N(C1CC1)S(=O)(=O)c1ccc(F)cc1Br [Compound 459] | – | 2.2 | –
COc1nn(C)cc1C(=O)N(C1CC1)S(=O)(=O)c1ccccc1C(F)(F)F [Compound 460] | – | 2.3 | –
COc1nn(C)cc1C(=O)N(C1CC1)S(=O)(=O)c1c(O)cc(Cl)cc1O [Compound 461] | – | 2.7 | –
COc1ccc(Oc2ccc(S(=O)(=O)N(C(=O)c3cn(C)nc3OC)C3CC3)c(Br)c2)cc1OC [Compound 462] | – | 2.9 | –
COc1ccc(Oc2ccc(S(=O)(=O)N(C(=O)c3cn(C)nc3OC)C3CC3)c(Br)c2)cc1 [Compound 463] | – | 3.3 | –
COc1nn(C)cc1C(=O)N(C1CC1)S(=O)(=O)c1ccc(Oc2ccccc2)cc1Br [Compound 464] | – | 3.3 | –
COc1nn(C)cc1C(=O)N(C1CC1)S(=O)(=O)c1ccc(Oc2ccccc2O)cc1Br [Compound 465] | – | 3.5 | –
COc1nn(C)cc1C(=O)N(C1CC1)S(=O)(=O)c1ccc(Oc2cccc(N(C)C)c2)cc1Br [Compound 466] | – | 3.5 | –
COc1nn(C)cc1C(=O)N(C1CC1)S(=O)(=O)c1ccc(Oc2ccc(C)cc2)cc1Br [Compound 467] | – | 3.7 | –
COc1nn(C)cc1C(=O)N(C1CC1)S(=O)(=O)c1ccc(Oc2cccc(O)c2)cc1Br [Compound 468] | – | 3.7 | –
COc1nn(C)cc1C(=O)N(C1CC1)S(=O)(=O)c1ccc(Oc2ccc(Cl)cc2)cc1Br [Compound 469] | – | 3.8 | –
COc1nn(C)cc1C(=O)N(C1CC1)S(=O)(=O)c1ccc(Oc2ccc(C)c(O)c2)cc1Br [Compound 470] | – | 3.8 | –
COc1nn(C)cc1C(=O)N(C1CC1)S(=O)(=O)c1ccc(Oc2cccc(C(F)(F)F)c2F)cc1Br [Compound 471] | – | 3.8 | –
COc1nn(C)cc1C(=O)N(C1CC1)S(=O)(=O)c1ccc(Oc2cccc(C(F)(F)F)c2)cc1Br [Compound 472] | – | 3.8 | –
COc1nn(C)cc1C(=O)N(C1CC1)S(=O)(=O)c1ccc(Oc2cccc(Br)c2)cc1Br [Compound 473] | – | 3.8 | –

The next lines start with results.

chromatographic logP [1] | chromatographic logP [3] | Structure (SMILES) | also measured
4.9 | – | CCCOc1nn(C)cc1C(=O)N(C1CC1)S(=O)(=O)c1ccc(Oc2ccc(O)c(C(F)(F)F)c2)cc1Br [Compound 302] | –
4.3 | – | CCCCc1ccc(S(=O)(=O)N(C(=O)c2c(C(F)(F)F)nn(C)c2F)C2CC2)cc1 [Compound 359] | –
3.1 | – | Cn1nc(C(F)(F)F)c(C(=O)N(C2CC2)S(=O)(=O)c2c(O)cccc2O)c1F [Compound 360] | –
4 | – | Cn1nc(C(F)(F)F)c(C(=O)N(C2CC2)S(=O)(=O)c2cc(O)c(O)cc2O)c1F [Compound 361] | –
3.1 | – | Cn1nc(C(F)(F)F)c(C(=O)N(C2CC2)S(=O)(=O)c2ccc(F)cc2O)c1F [Compound 362] | –
3.7 | – | Cn1nc(C(F)(F)F)c(C(=O)N(C2CC2)S(=O)(=O)c2c(O)cc(O)cc2O)c1F [Compound 363] | –
2.6 | – | Cc1cc(O)cc(O)c1S(=O)(=O)N(C(=O)c1c(C(F)(F)F)nn(C)c1F)C1CC1 [Compound 367] | –
3.2 | – | Cn1nc(C(F)(F)F)c(C(=O)N(C2CC2)S(=O)(=O)c2ccc(F)cc2Br)c1F [Compound 368] | –
3 | – | Cn1nc(C(F)(F)F)c(C(=O)N(C2CC2)S(=O)(=O)c2ccccc2I)c1F [Compound 369] | –
4.2 | – | Cn1nc(C(F)(F)F)c(C(=O)N(C2CC2)S(=O)(=O)c2ccc(Oc3ncc(C(F)(F)F)cc3O)cc2)c1F [Compound 372] | –
3.8 | – | CCc1nn(C)c(F)c1C(=O)N(C1CC1)S(=O)(=O)c1ccc(O)c(O)c1 [Compound 378] | –
3.5 | – | CCc1nn(C)c(F)c1C(=O)N(C1CC1)S(=O)(=O)c1cc(C(F)(F)F)ccc1O [Compound 384] | –
– | 2.6 | Cc1nn(C)c(O)c1S(=O)(=O)N(C(=O)c1c(C(F)(F)F)nn(C)c1F)C1CC1 [Compound 443] | –
